{"source": "patent US11400073B2", "about": "“Prevention and treatment of benign prostatic hyperplasia using a selective inhibitor of the production of reactive oxygen species of mitochondrial origin” (priority 2017, dated 2022)", "key": {"[1]": {"test_system": "oxidation/carbonylation of the proteins", "assay": "Oxidation/carbonylation of the proteins by blot (Oxyblot) in Pb-PRL mouse prostate", "type": "in vivo", "conditions": "Pb-PRL mice, 60 mg/kg/day, 28 days, vs control; all lobes; FIGS. 10A-10C", "procedure": "(§1) ATT (anethole trithione) was administered to probasin-prolactin (Pb-PRL) mice. This is a transgenic mouse model in which prolactin is specifically overexpressed by the epithelial cells of the prostate, leading to development of benign hyperplasia having characteristics in common with the human pathology: tissue hypertrophy, hyperplasia of the epithelial and stromal cells, and intra-prostatic inflammation (Kindblom et al., 2003; Bernichtein et al., 2015a; Bernichtein et al., 2015b).\n(§2) The control group (excipient) was treated with the oil alone.\n(§3) The animals were sacrificed at the end of the 28 days of treatment (cervical dislocation), and the prostates were harvested and analyzed by the standard procedures previously described in the literature (Bernichtein et al. Prostate 2015, Bernichtein et al. PLoS. ONE 2015, Bernichtein et al. Cancer Res 2017).\n(§4) Oxidative stress will be measured using two approaches: • oxidation/carbonylation of the proteins by blot (Oxyblot™, Merck). • PHD1 and PHD3 dioxygenase expression (RT-qPCR)."}, "[2]": {"test_system": "mitochondrial oxidative phosphorylation", "assay": "Effect on mitochondrial oxidative phosphorylation", "type": "biochemical", "conditions": "preliminarily demonstrated"}, "PSP94": {"test_system": "PSP94", "assay": "RT-qPCR of PSP94 in Pb-PRL mouse prostate", "type": "in vivo", "conditions": "Pb-PRL mice, 60 mg/kg/day, 28 days, vs control; dorsal, lateral, ventral prostate; FIGS. 6A-6C", "procedure": "as §1, §2, §3\n(§5) This study was performed by RT-qPCR analysis of the expression of elements associated with androgenic signaling and of conventional targets of the androgen receptor in the prostate (AR, PSP 94, Srd5A1, Srd5A2) (Bernichtein et al. Prostate 2015, Sackmann Sala et al. J Pathol 2017)."}, "PHD1 dioxygenase": {"test_system": "PHD1 dioxygenase", "assay": "RT-qPCR of PHD1 dioxygenase in Pb-PRL mouse prostate", "type": "in vivo", "conditions": "Pb-PRL mice, 60 mg/kg/day, 28 days, vs control; FIGS. 11A-11C", "procedure": "as §1, §2, §3, §4"}, "[3]": {"test_system": "SRD5A2 (5-alpha-reductase)", "assay": "RT-qPCR of SRD5A2 in Pb-PRL mouse prostate", "type": "in vivo", "conditions": "Pb-PRL mice, 60 mg/kg/day, 28 days, vs control; dorsal, lateral, ventral prostate; FIGS. 5A-5C", "procedure": "as §1, §2, §3, §5"}, "TNFalpha": {"test_system": "TNFalpha", "assay": "RT-qPCR of TNFalpha in Pb-PRL mouse prostate", "type": "in vivo", "conditions": "Pb-PRL mice, 60 mg/kg/day, 28 days, vs control; dorsal, lateral, ventral prostate; FIGS. 9A-9C", "procedure": "as §1, §2, §3\n(§6) The inflammation was measured using two approaches: • CD45 immunolabeling (IHC): making it possible to quantify the number and size of the inflammation sites (image analysis using Calopix software). • RT-qPCR of selected cytokines: IL6 and TNFa."}, "IL6": {"test_system": "IL6", "assay": "RT-qPCR of IL6 in Pb-PRL mouse prostate", "type": "in vivo", "conditions": "Pb-PRL mice, 60 mg/kg/day, 28 days, vs control; dorsal, lateral, ventral prostate; FIGS. 8A-8C", "procedure": "as §1, §2, §3, §6"}, "[4]": {"test_system": "epithelial proliferation (Ki-67)", "assay": "Epithelial proliferation by IHC Ki-67 in Pb-PRL mouse prostate", "type": "in vivo", "conditions": "Pb-PRL mice, 60 mg/kg/day by gavage, 28 days, vs control group; half-prostate; FIG. 2", "procedure": "as §1, §2, §3\nCell proliferation was measured by IHC Ki-67, which makes it possible to calculate the epithelium proliferation index (manual counting or Calopix software)."}, "[5]": {"test_system": "SRD5A1 (5-alpha-reductase)", "assay": "RT-qPCR of SRD5A1 in Pb-PRL mouse prostate", "type": "in vivo", "conditions": "Pb-PRL mice, 60 mg/kg/day, 28 days, vs control; dorsal, lateral, ventral prostate; FIGS. 4A-4C", "procedure": "as §1, §2, §3, §5"}, "Pb-PRL mice": {"test_system": "Pb-PRL mice", "assay": "Scar fibrosis in Pb-PRL mouse prostate", "type": "in vivo", "conditions": "60 mg/kg/day, 28 days, vs control", "procedure": "ATT (anethole trithione) was administered to probasin-prolactin (Pb-PRL) mice. This is a transgenic mouse model in which prolactin is specifically overexpressed by the epithelial cells of the prostate, leading to development of benign hyperplasia having characteristics in common with the human pathology: tissue hypertrophy, hyperplasia of the epithelial and stromal cells, and intra-prostatic inflammation (Kindblom et al., 2003; Bernichtein et al., 2015a; Bernichtein et al., 2015b). […] The control group (excipient) was treated with the oil alone. […] The animals were sacrificed at the end of the 28 days of treatment (cervical dislocation), and the prostates were harvested and analyzed by the standard procedures previously described in the literature (Bernichtein et al. Prostate 2015, Bernichtein et al. PLoS. ONE 2015, Bernichtein et al. Cancer Res 2017)."}, "[6]": {"conditions": "marketed as SULFARLEM; cited from earlier work"}, "[7]": {"test_system": "IQ site of the I complex of the mitochondrial respiratory chain", "assay": "Action on mitochondrial ROS production", "type": "biochemical", "conditions": "mostly at the IQ site of the I complex of the mitochondrial respiratory chain; unlike conventional antioxidants"}, "PHD3 dioxygenase": {"test_system": "PHD3 dioxygenase", "assay": "RT-qPCR of PHD3 dioxygenase in Pb-PRL mouse prostate", "type": "in vivo", "conditions": "Pb-PRL mice, 60 mg/kg/day, 28 days, vs control; FIGS. 12A-12C", "procedure": "as §1, §2, §3, §4"}, "[8]": {"conditions": "in rats; cited from earlier work"}, "HIF1 alpha": {"test_system": "HIF1 alpha", "assay": "RT-qPCR of HIF1 alpha (hypoxia) in Pb-PRL mouse prostate", "type": "in vivo", "conditions": "Pb-PRL mice, 60 mg/kg/day, 28 days, vs control; in one or more prostate lobes; FIGS. 13A-13C", "procedure": "as §1, §2, §3\nHypoxia was observed by analysis of HIF1 alpha measured by RT-qPCR at the dorsal, lateral and ventral prostate. The results are presented in FIGS. 13A, 13B and […], respectively."}, "CD45": {"test_system": "CD45", "assay": "CD45 immunolabeling (IHC) of inflammation sites in Pb-PRL mouse prostate", "type": "in vivo", "conditions": "Pb-PRL mice, 60 mg/kg/day, 28 days, vs control; half-prostate; FIG. 7", "procedure": "as §1, §2, §3, §6"}, "cytokines": {"test_system": "cytokines", "conditions": "experimental T. vaginalis prostatic infection models; inhibition of ROS production (Kim S-S., 2016); cited from earlier work"}, "[9]": {"test_system": "cell proliferation / apoptosis", "conditions": "Ren, 2015; cited from earlier work"}, "prostatic ROSs": {"test_system": "prostatic ROSs", "conditions": "Ren, 2015; cited from earlier work"}, "HIF-1α": {"test_system": "HIF-1α", "conditions": "Ren, 2015; cited from earlier work"}, "VEGF": {"test_system": "VEGF", "conditions": "Ren, 2015; cited from earlier work"}}, "data": [{"smiles": "COc1ccc(-c2cc(=S)ss2)cc1", "note": "[ATT, 5-(4-methoxyphenyl)-3H-1,2-dithiole-3-thione]", "values": [{"measurement": "carbonylation of the proteins (Oxyblot)", "setting": "[1]", "result": "statistically significant decrease"}, {"measurement": "effect on mitochondrial oxidative phosphorylation", "setting": "[2]", "result": "does not affect"}, {"measurement": "expression of PSP94 messenger RNAs", "setting": "PSP94", "result": "statistically significant decrease"}, {"measurement": "expression of the messenger RNAs of PHD1 dioxygenase", "setting": "PHD1 dioxygenase", "result": "statistically significant decrease"}, {"measurement": "expression of 5-alpha-reductase 2 (SRD5A2) messenger RNAs", "setting": "[3]", "result": "statistically significant decrease"}, {"measurement": "expression of TNFalpha", "setting": "TNFalpha", "result": "decrease"}, {"measurement": "expression of IL6", "setting": "IL6", "result": "decrease"}, {"measurement": "epithelial proliferation of the prostate (Ki-67 immunohistochemistry)", "setting": "[4]", "result": "statistically significant decrease"}, {"measurement": "expression of 5-alpha-reductase 1 (SRD5A1) messenger RNAs", "setting": "[5]", "result": "statistically significant decrease"}, {"measurement": "scar fibrosis", "setting": "Pb-PRL mice", "result": "statistically significant increase"}, {"measurement": "side effects associated to long-term use", "setting": "[6]", "result": "no side effect has been reported"}, {"measurement": "action on mitochondrial ROS production", "setting": "[7]", "result": "acts directly and selectively"}, {"measurement": "expression of the messenger RNAs of PHD3 dioxygenase", "setting": "PHD3 dioxygenase", "result": "statistically significant decrease"}, {"measurement": "half-life", "setting": "[8]", "result": 24, "unit": "min"}, {"measurement": "expression of the messenger RNAs of the HIF1 alpha hypoxia marker", "setting": "HIF1 alpha", "result": "statistically significant increase"}, {"measurement": "number of positive leukocyte cell sites for the CD45 marker", "setting": "CD45", "result": "statistically significant decrease"}]}, {"smiles": "c1ccc2c(c1)[I+]c1ccccc1-2", "note": "[DPI, diphenylene iodonium]", "values": [{"measurement": "overexpression of cytokines", "setting": "cytokines", "result": "prevents overexpression"}]}, {"smiles": "CC1=NN(c2ccccc2)C(=O)C1", "note": "[edaravone]", "values": [{"measurement": "apoptosis", "setting": "[9]", "result": "promotes"}, {"measurement": "cell proliferation", "setting": "[9]", "result": "reduces"}, {"measurement": "levels of prostatic ROSs", "setting": "prostatic ROSs", "result": "decreases"}, {"measurement": "levels of HIF-1α", "setting": "HIF-1α", "result": "decreases"}, {"measurement": "levels of VEGF", "setting": "VEGF", "result": "decreases"}]}]}
